The target of the experiment is PARG (Homo sapiens, UniProt Q86W56). In words: Biochemical assay (PARG, TFMU-ADPr substrate).
Setting [1] is: 4 nM PARG, 66.2 uM TFMU-ADPr, 3 min at room temperature.

Chain of PARG (Q86W56 whole entry): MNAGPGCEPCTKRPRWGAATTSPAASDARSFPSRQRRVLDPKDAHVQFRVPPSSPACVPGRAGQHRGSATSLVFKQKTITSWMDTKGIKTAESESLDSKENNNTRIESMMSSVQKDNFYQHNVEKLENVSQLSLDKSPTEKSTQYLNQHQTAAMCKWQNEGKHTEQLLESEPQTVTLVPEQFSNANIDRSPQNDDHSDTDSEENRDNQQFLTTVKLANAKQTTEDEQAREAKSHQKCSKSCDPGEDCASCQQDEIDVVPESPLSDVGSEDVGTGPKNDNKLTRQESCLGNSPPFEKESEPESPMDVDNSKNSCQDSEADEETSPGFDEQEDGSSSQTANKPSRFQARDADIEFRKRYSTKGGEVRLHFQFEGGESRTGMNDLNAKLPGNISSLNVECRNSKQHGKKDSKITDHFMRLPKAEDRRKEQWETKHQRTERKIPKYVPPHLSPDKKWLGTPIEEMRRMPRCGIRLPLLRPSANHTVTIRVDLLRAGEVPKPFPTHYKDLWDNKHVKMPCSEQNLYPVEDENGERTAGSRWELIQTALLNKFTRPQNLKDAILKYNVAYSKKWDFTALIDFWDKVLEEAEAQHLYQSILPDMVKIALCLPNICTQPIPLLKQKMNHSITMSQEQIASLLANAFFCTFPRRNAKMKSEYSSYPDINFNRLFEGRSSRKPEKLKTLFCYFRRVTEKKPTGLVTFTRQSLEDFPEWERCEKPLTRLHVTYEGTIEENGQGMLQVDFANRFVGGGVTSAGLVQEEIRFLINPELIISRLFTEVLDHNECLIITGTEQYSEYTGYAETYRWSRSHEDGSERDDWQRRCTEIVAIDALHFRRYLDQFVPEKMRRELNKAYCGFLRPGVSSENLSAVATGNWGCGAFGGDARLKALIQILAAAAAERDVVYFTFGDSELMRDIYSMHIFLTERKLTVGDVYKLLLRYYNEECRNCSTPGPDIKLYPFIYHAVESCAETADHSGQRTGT

For `Cc1ncc(-c2cnc3c(N4CCN(C(=O)C(C)C)CC4)cc(S(=O)(=O)NC4(C#N)CC4)cn23)s1` [Example 1, N-(1-cyanocyclopropyl)-8-(4-isobutyrylpiperazin-1-yl)-3-(2-methylthiazol-5-yl)imidazo[1,2-a]pyridine-6-sulfonamide], the IC50 – broadly, the concentration needed to halve the response being measured – (PARG, TFMU-ADPr substrate) came to 1540 nM.

In turn, `Cc1nnc(-c2cnc3c(N4CCN(C(=O)C(C)C)CC4)cc(S(=O)(=O)NC4(C#N)CC4)cn23)s1` [Example 2, N-(1-cyanocyclopropyl)-8-(4-isobutyrylpiperazin-1-yl)-3-(5-methyl-1,3,4-thiadiazol-2-yl)imidazo[1,2-a]pyridine-6-sulfonamide] registered an IC50 (PARG, TFMU-ADPr substrate) of 2100 nM.

Turning to `Cc1cnc(-c2cnc3c(N4CCN(C(=O)C(C)C)CC4)cc(S(=O)(=O)NC4(C#N)CC4)cn23)s1` [Example 3, N-(1-cyanocyclopropyl)-8-(4-isobutyrylpiperazin-1-yl)-3-(5-methylthiazol-2-yl)imidazo[1,2-a]pyridine-6-sulfonamide], the midpoint of inhibition (PARG, TFMU-ADPr substrate), the IC50, lay at 33.1 nM.

As for `CC(C)C(=O)N1CCN(c2cc(S(=O)(=O)NC3(C#N)CC3)cn3c(-c4cc5n(n4)CCCC5F)cnc23)CC1` (stereo not shown) [Example 8], the IC50 (PARG, TFMU-ADPr substrate) was found to be 9690 nM.

Under setting [1], `CC(C)C(=O)N1CCN(c2cc(S(=O)(=O)NC3(C#N)CC3)cn3c(-c4cc5n(n4)CC(F)C5)cnc23)CC1` (stereo not shown) [Example 10, N-(1-cyanocyclopropyl)-3-(5-fluoro-5,6-dihydro-4H-pyrrolo[1,2-b]pyrazol-2-yl)-8-(4-isobutyrylpiperazin-1-yl)imidazo[1,2-a]pyridine-6-sulfonamide] returned an IC50 of 500 to 1000 nM.

Regarding `CC(=O)N1CC2(CC=C(c3cc(S(=O)(=O)NC4(C#N)CC4)cn4c(-c5nnc(C(F)F)s5)cnc34)C2)C1` [Example 13, 8-(2-acetyl-2-azaspiro[3.4]oct-6-en-6-yl)-N-(1-cyanocyclopropyl)-3-(5-(difluoromethyl)-1,3,4-thiadiazol-2-yl)imidazo[1,2-a]pyridine-6-sulfonamide], the IC50 was below 100 nM under setting [1] and 10.9 nM (PARG, TFMU-ADPr substrate).

Take `CC(C)C(=O)N1CCN(c2cc(S(=O)(=O)NC3COC3)cn3c(-c4nnc(C(F)F)s4)cnc23)CC1` [Example 16, 3-(5-(difluoromethyl)-1,3,4-thiadiazol-2-yl)-8-(4-isobutyrylpiperazin-1-yl)-N-(oxetan-3-yl)imidazo[1,2-a]pyridine-6-sulfonamide]: the IC50 runs as follows: under setting [1], below 100 nM; (PARG, TFMU-ADPr substrate) 29.7 nM.

In the case of `C=CC(=O)N1CC=C(c2cnc3c(N4CCN(C(=O)C(C)C)CC4)cc(S(=O)(=O)NC4(C#N)CC4)cn23)C1` [Example 18, 3-(1-acryloyl-2,5-dihydro-1H-pyrrol-3-yl)-N-(1-cyanocyclopropyl)-8-(4-isobutyrylpiperazin-1-yl)imidazo[1,2-a]pyridine-6-sulfonamide], the IC50 under setting [1] is below 100 nM and 40 nM corresponded to half-maximal inhibition (PARG, TFMU-ADPr substrate) (IC50).

`C=CC(=O)N1CCC(c2cnc3c(N4CCN(C(=O)C(C)C)CC4)cc(S(=O)(=O)NC4(C#N)CC4)cn23)C1` (stereo not shown) [Example 19, 3-(1-acryloylpyrrolidin-3-yl)-N-(1-cyanocyclopropyl)-8-(4-isobutyrylpiperazin-1-yl)imidazo[1,2-a]pyridine-6-sulfonamide] gave an IC50 (PARG, TFMU-ADPr substrate) of 7240 nM.

Consider `CCC(=O)N1CC=C(c2cnc3c(N4CCN(C(=O)C(C)C)CC4)cc(S(=O)(=O)NC4(C#N)CC4)cn23)C1` [Example 20, N-(1-cyanocyclopropyl)-8-(4-isobutyrylpiperazin-1-yl)-3-(1-propionyl-2,5-dihydro-1H-pyrrol-3-yl)imidazo[1,2-a]pyridine-6-sulfonamide], for which the IC50 by setting is: under setting [1], below 100 nM; (PARG, TFMU-ADPr substrate) 178 nM.

`C=CC(=O)N1CC=C(c2cnc3c(N4CCN(C(=O)C(C)C)CC4)cc(S(=O)(=O)NC4(C#N)CC4)cn23)CC1` [Example 21, 3-(1-acryloyl-1,2,3,6-tetrahydropyridin-4-yl)-N-(1-cyanocyclopropyl)-8-(4-isobutyrylpiperazin-1-yl)imidazo[1,2-a]pyridine-6-sulfonamide] registered an IC50 (PARG, TFMU-ADPr substrate) of 912 nM.

Take `Cc1ncc(-c2cnn3c(N4CCN(C(=O)C(C)C)CC4)cc(S(=O)(=O)NC4(C#N)CC4)cc23)s1` [Example 28, N-(1-cyanocyclopropyl)-7-(4-isobutyrylpiperazin-1-yl)-3-(2-methylthiazol-5-yl)pyrazolo[1,5-a]pyridine-5-sulfonamide]: the IC50 under setting [1] was below 100 nM and the IC50 (PARG, TFMU-ADPr substrate) was 33 nM.

Regarding `CC(C)C(=O)N1CCN(c2cc(S(=O)(=O)NC(C3CC3)C(F)(F)F)cn3c(-c4nnc(C(F)F)s4)ncc23)CC1` (stereo not shown) [Example 36, N-(1-cyclopropyl-2,2,2-trifluoroethyl)-3-(5-(difluoromethyl)-1,3,4-thiadiazol-2-yl)-8-(4-isobutyrylpiperazin-1-yl)imidazo[1,5-a]pyridine-6-sulfonamide], the IC50 is 500 to 1000 nM under setting [1] and 649 nM (PARG, TFMU-ADPr substrate).

Take `CN1CCN(c2cc(S(=O)(=O)NC3(C#N)CC3)cn3c(-c4nnc(C(F)F)s4)ncc23)CC1` [Example 38, N-(1-cyanocyclopropyl)-3-(5-(difluoromethyl)-1,3,4-thiadiazol-2-yl)-8-(4-methylpiperazin-1-yl)imidazo[1,5-a]pyridine-6-sulfonamide]: the IC50 was below 100 nM under setting [1] and 16.4 nM (PARG, TFMU-ADPr substrate).

`CN1CCN(c2cc(S(=O)(=O)NC3(C#N)CC3)cn3c(-c4nnc(C(F)F)s4)ncc23)CC1=O` [Example 41, N-(1-cyanocyclopropyl)-3-(5-(difluoromethyl)-1,3,4-thiadiazol-2-yl)-8-(4-methyl-3-oxopiperazin-1-yl)imidazo[1,5-a]pyridine-6-sulfonamide]: the IC50 is below 100 nM under setting [1] and 29.8 nM (PARG, TFMU-ADPr substrate).

As to `N#CC1(NS(=O)(=O)c2cc(N3CCC(O)C3)c3cnc(-c4nnc(C(F)F)s4)n3c2)CC1` (stereo not shown) [Example 42, N-(1-cyanocyclopropyl)-3-(5-(difluoromethyl)-1,3,4-thiadiazol-2-yl)-8-(3-hydroxypyrrolidin-1-yl)imidazo[1,5-a]pyridine-6-sulfonamide], the IC50 by setting is: under setting [1], below 100 nM; (PARG, TFMU-ADPr substrate) 18 nM.

Regarding `Cc1ncc2n1CCN(c1cc(S(=O)(=O)NC3(C#N)CC3)cn3c(-c4nnc(C(F)F)s4)ncc13)C2` [Example 44, N-(1-cyanocyclopropyl)-3-(5-(difluoromethyl)-1,3,4-thiadiazol-2-yl)-8-(3-methyl-5,6-dihydroimidazo[1,5-a]pyrazin-7(8H)-yl)imidazo[1,5-a]pyridine-6-sulfonamide], the IC50 was below 100 nM under setting [1] and 10.7 nM (PARG, TFMU-ADPr substrate).

As for `COc1ccc(N(C)c2cc(S(=O)(=O)NC3(C#N)CC3)cn3c(-c4nnc(C(F)F)s4)ncc23)cc1` [Example 45, N-(1-cyanocyclopropyl)-3-(5-(difluoromethyl)-1,3,4-thiadiazol-2-yl)-8-((4-methoxyphenyl)(methyl)amino)imidazo[1,5-a]pyridine-6-sulfonamide], the IC50 was 100 to 500 nM under setting [1] and 135 nM (PARG, TFMU-ADPr substrate).

For the molecule `O=S(=O)(NC1(CF)CC1)c1cc(N2CCC(O)C2)c2cnc(-c3nnc(C(F)F)s3)n2c1` (stereo not shown) [Example 46, 3-(5-(difluoromethyl)-1,3,4-thiadiazol-2-yl)-N-(1-(fluoromethyl)cyclopropyl)-8-(3-hydroxypyrrolidin-1-yl)imidazo[1,5-a]pyridine-6-sulfonamide], the IC50 is below 100 nM under setting [1] and 6.31 nM (PARG, TFMU-ADPr substrate).

The values above are taken from patent US20260258035A1, “FIVE-MEMBERED AND SIX-MEMBERED NITROGEN-CONTAINING COMPOUND, AND INTERMEDIATE, PREPARATION METHOD AND USE THEREOF” (HANGZHOU SYNRX THERAPEUTICS BIOMEDICAL TECHNOLOGY CO., LTD., priority 2022, published 2026).
